The results in this text go back to US9139577B2, “Sulfoximine substituted quinazolines for pharmaceutical compositions” (Boehringer Ingelheim International GmbH, priority 2013, dated 2015).

The structures appear in SMILES notation.

Sequence of MNK2a (Q9HBH9 whole entry): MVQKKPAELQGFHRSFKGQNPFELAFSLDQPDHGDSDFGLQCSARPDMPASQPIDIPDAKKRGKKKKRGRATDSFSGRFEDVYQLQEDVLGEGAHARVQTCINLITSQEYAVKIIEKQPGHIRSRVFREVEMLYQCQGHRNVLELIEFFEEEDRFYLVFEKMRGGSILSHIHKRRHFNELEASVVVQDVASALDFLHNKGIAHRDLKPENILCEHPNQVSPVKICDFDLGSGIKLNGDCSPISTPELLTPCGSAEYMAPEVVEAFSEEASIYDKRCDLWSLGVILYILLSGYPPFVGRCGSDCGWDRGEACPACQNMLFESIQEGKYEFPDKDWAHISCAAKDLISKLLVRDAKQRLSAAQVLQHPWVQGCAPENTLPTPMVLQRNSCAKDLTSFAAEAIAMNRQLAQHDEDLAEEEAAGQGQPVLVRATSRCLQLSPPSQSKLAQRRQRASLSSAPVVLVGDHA

The experiment concerns the target MNK2a (Homo sapiens (Human), UniProt Q9HBH9). As to the kind of experiment: MNK2a in vitro kinase assay (Assay 2), ADP-Glo. It is filed as biochemical. Particulars: read-out: MNK2 IC50. The method, then: B. MNK2a In vitro Kinase Assay (Assay 2)
ASSAY SETUP: The inhibition of kinase activity of MNK2a was assessed using pre-activated GST-MNK2a. The white, 384-well OptiPlate F plates were purchased from PerkinElmer. The ADP-Glo Kinase Assay (including ultra pure ATP) was purchased from Promega (V9103). Activated MNK2a was obtained as described in WO2011/104340. […] ID No. 5 of WO 2011/104340 by the C-terminal —CONH2 group, was purchased from Thermo Fisher Scientific. All other materials were of highest grade commercially available. Compounds are tested in either serial dilutions or single dose concentrations. The compound stock solutions are 10 mM in 100% DMSO The serial compound dilutions are prepared in 100% DMSO followed by 1:27.3 intermediate dilution in assay buffer. The final DMSO concentration in assay will be <3%. In the 384-well plates 3 μl of test compound from the intermediate dilution is mixed with 4 μl of the activated MNK2 enzyme (final concentration of 10 nM) and 4 μl of the peptide (final concentration of 25 μM)/ultra pure ATP (final concentration of 20 μM), all dissolved in assay buffer. This step is followed by an incubation time of 90 min, then 10 μl of ADP Glo reagent are added, followed by 40 min of incubation. Then 20 μl of kinase detection reagent are admixed. The plates are sealed and after an incubation period of 30 min, the luminescence signal is measured in an Envision reader to determine the amount of produced ADP. All incubation steps are performed at room temperature. The assay buffer consists of 20 mM HEPES, 2 mM DTT, 0.01% BSA, 20 mM MgCl2 and 0.1% Pluronic F-127.
The luminescent signal generated is proportional to the ADP concentration produced and is correlated with activated MNK2 activity. The analysis of the data is performed by the calculation of the percentage of ATP consumption of activated MNK2 in the presence of the test compound compared to the consumption of ATP in the presence of activated MNK2 without compound. (RLU(sample)−RLU(low control))*100/(RLU(high value)−RLU(low control)) [RLU=relative luminescence units]
[…] values based on dose response curves are calculated with the AssayExplorer software.
Background: ADP-Glo first removes unused ATP, then detects ADP through luciferase.
The term IC50 denotes the concentration needed to halve the response being measured. As for `Cc1cc(N=S2(=O)CCCC2)cc2ncnc(Nc3ccc(F)cc3O[C@H](C)C(=O)N3CCCC3)c12` [Example 4.006], the IC50 stood at 5 nM.

With `Cc1cc(N=S2(=O)CCCC2)cc2ncnc(Nc3ccc(F)cc3O[C@H](C)C(=O)NCC#N)c12` [Example 4.007], the IC50 came out at 2 nM.

As for `Cc1cc(N=S(C)(C)=O)cc2ncnc(Nc3ccc(F)cc3O[C@H](C)C(=O)N3CCCC3)c12` [Example 4.016], the half-maximal inhibitory concentration (IC50) is 20 nM.

On to `CCN(CC)C(=O)[C@@H](C)Oc1cc(F)ccc1Nc1ncnc2cc(N=S3(=O)CCCC3)cc(C)c12` [Example 4.025], for which the 50% inhibitory concentration (IC50) is 3 nM.

As for `Cc1cc(N=S2(=O)CCCC2)cc2ncnc(Nc3ccc(F)cc3O[C@H](C)C(=O)N(C)C3CCCC3)c12` [Example 4.026], the IC50 came to 3 nM.

In the case of `Cc1cc(N=S(C)(C)=O)cc2ncnc(Nc3ccc(F)cc3O[C@H](C)C(=O)N3CC[S+]([O-])CC3)c12` [Example 4.030], the IC50 was 11 nM.

As to `CCCNC(=O)[C@@H](C)Oc1cc(F)ccc1Nc1ncnc2cc(N=S3(=O)CCCC3)cc(C)c12` [Example 4.033], the 50% inhibitory concentration (IC50) worked out at 2 nM.

As for `Cc1cc(N=S(C)(C)=O)cc2ncnc(Nc3ccc(F)cc3O[C@H](C)C(=O)NCC(F)F)c12` [Example 4.036], the IC50 stood at 1 nM.

On to `Cc1cc(N=S(C)(C)=O)cc2ncnc(Nc3ccc(F)cc3O[C@H](C)C(=O)NCC#N)c12` [Example 4.039], for which the IC50 is 1 nM.

In the case of `Cc1cc(N=S2(=O)CCCC2)cc2ncnc(Nc3ccc(F)cc3O[C@H](C)C(=O)NCC(F)F)c12` [Example 4.043], the IC50 stood at 2 nM.

Turning to `Cc1cc(N=S(C)(C)=O)cc2ncnc(Nc3ccc(F)cc3O[C@H](C)C(=O)N3CCC(=O)CC3)c12` [Example 4.046], the IC50 stood at 15 nM.

Take `Cc1cc(N=S(C)(C)=O)cc2ncnc(Nc3ccc(F)cc3O[C@H](C)C(=O)N3CCC3)c12` [Example 4.049]: the IC50 turned out to be 19 nM.

For the compound `CC#CCNC(=O)[C@@H](C)Oc1cc(F)ccc1Nc1ncnc2cc(N=S(C)(C)=O)cc(C)c12` [Example 4.066], the IC50 was 9 nM.

For `Cc1cc(N=S2(=O)CCCC2)cc2ncnc(Nc3ccc(F)cc3O[C@H](C)C(=O)N3CCC3)c12` [Example 4.070], the IC50 was 7 nM.

For `CC(C)NC(=O)[C@@H](C)Oc1cc(F)ccc1Nc1ncnc2cc(N=S(C)(C)=O)cc(Cl)c12` [Example 4.076], the concentration for half-maximal inhibition (IC50) was determined as 4 nM.

With `C[C@@H](C#N)NC(=O)[C@@H](C)Oc1cc(Cl)ccc1Nc1ncnc2cc(N=S3(=O)CCC3)cc(F)c12` [Example 4.077], the concentration for half-maximal inhibition (IC50) was found to be 2 nM.

Regarding `C[C@@H](Oc1cc(F)ccc1Nc1ncnc2cc(N=S(C)(C)=O)cc(Cl)c12)C(=O)NCCF` [Example 4.078], the concentration for half-maximal inhibition (IC50) turned out to be 2 nM.

In the case of `Cc1cc(N=S2(=O)CCC2)cc2ncnc(Nc3ccc(Cl)cc3O[C@H](C)C(=O)N[C@@H](C)C(F)(F)F)c12` [Example 4.079], the concentration for half-maximal inhibition (IC50) came out at 1 nM.

`C[C@@H](Oc1cc(F)ccc1Nc1ncnc2cc(N=S(C)(C)=O)cc(Cl)c12)C(=O)NCC(F)F` [Example 4.080]: the concentration for half-maximal inhibition (IC50) worked out at 2 nM.

On to `Cc1cc(N=S2(=O)CCC2)cc2ncnc(Nc3ccc(F)cc3O[C@H](C)C(=O)NC(C)C)c12` [Example 4.081], for which the half-inhibitory concentration (IC50) was determined as 2 nM.

On to `Cc1cc(N=S2(=O)CCC2)cc2ncnc(Nc3ccc(F)cc3O[C@H](C)C(=O)NC34CC(C3)C4)c12` [Example 4.082], for which the IC50 was 2 nM.

As to `CC(NC(=O)[C@@H](C)Oc1cc(F)ccc1Nc1ncnc2cc(N=S(C)(C)=O)cc(F)c12)C(F)F` (some centres unmarked) [Example 4.083], the IC50 amounted to 8 nM.

As to `C[C@@H](Oc1cc(F)ccc1Nc1ncnc2cc(N=S(C)(C)=O)cc(Cl)c12)C(=O)NCC#N` [Example 4.085], the IC50 was determined as 2 nM.

In the case of `C[C@@H](Oc1cc(F)ccc1Nc1ncnc2cc(N=S(C)(C)=O)cc(C(F)(F)F)c12)C(=O)NCC(F)(F)F` [Example 4.086], the half-maximal inhibitory concentration (IC50) is 2 nM.

Regarding `COc1cc(N=S2(=O)CCC2)cc2ncnc(Nc3ccc(Cl)cc3O[C@H](C)C(=O)NCC(F)(F)F)c12` [Example 4.087], the IC50 was determined as 2 nM.

As for `Cc1cc(N=S2(=O)CCC2)cc2ncnc(Nc3ccc(F)cc3O[C@H](C)C(=O)NCCC(F)(F)F)c12` [Example 4.089], the concentration for half-maximal inhibition (IC50) amounted to 1 nM.

Consider `C[C@@H](Oc1cc(F)ccc1Nc1ncnc2cc(N=S3(=O)CCC3)cc(Cl)c12)C(=O)N[C@H](C)C(F)(F)F` [Example 4.090], for which the IC50 was determined as 1 nM.

With `C[C@@H](Oc1cc(F)ccc1Nc1ncnc2cc(N=S(C)(C)=O)cc(Cl)c12)C(=O)NCC(F)(F)F` [Example 4.091], the IC50 is 1 nM.

On to `Cc1cc(N=S(C)(C)=O)cc2ncnc(Nc3ccc(Cl)cc3O[C@H](C)C(=O)NCC(F)(F)F)c12` [Example 4.092], for which the IC50 came out at 2 nM.

Consider `C[C@@H](C#N)NC(=O)[C@@H](C)Oc1cc(Cl)ccc1Nc1ncnc2cc(N=S3(=O)CCCC3)cc(F)c12` [Example 4.093], for which the IC50 was 1 nM.

Turning to `Cc1cc(N=S2(=O)CCC2)cc2ncnc(Nc3ccc(Cl)nc3O[C@H](C)C(=O)N[C@@H](C)C(F)(F)F)c12` [Example 4.094], the IC50 is 1 nM.

For the compound `CCOc1cc(N=S2(=O)CCC2)cc2ncnc(Nc3ccc(Cl)cc3O[C@H](C)C(=O)N[C@@H](C)C#N)c12` [Example 4.095], the 50% inhibitory concentration (IC50) is 2 nM.

`C[C@H](NC(=O)[C@@H](C)Oc1cc(F)ccc1Nc1ncnc2cc(N=S3(=O)CCC3)cc(Cl)c12)C(F)(F)F` [Example 4.096]: the IC50 was determined as 1 nM.

With `C[C@@H](Oc1cc(F)ccc1Nc1ncnc2cc(N=S3(=O)CCC3)cc(F)c12)C(=O)NCC#N` [Example 4.097], the IC50 was determined as 1 nM.

As for `COc1cc(N=S2(=O)CCC2)cc2ncnc(Nc3ccc(F)cc3O[C@H](C)C(=O)N[C@@H](C)C(F)(F)F)c12` [Example 4.098], the IC50 came to 4 nM.

For the compound `CC(C#N)NC(=O)[C@@H](C)Oc1cc(F)ccc1Nc1ncnc2cc(N=S3(=O)CCC3)cc(F)c12` (some centres unmarked) [Example 4.099], the IC50 was determined as 2 nM.

For the compound `Cc1cc(N=S(C)(C)=O)cc2ncnc(Nc3ccc(F)cc3O[C@H](C)C(=O)NC(CF)CF)c12` [Example 4.101], the IC50 was 3 nM.

Consider `C[C@@H](C#N)NC(=O)[C@@H](C)Oc1cc(F)ccc1Nc1ncnc2cc(N=S3(=O)CCC3)cc(C(F)F)c12` [Example 4.102], for which the half-maximal inhibitory concentration (IC50) worked out at 2 nM.

As to `Cc1cc(N=S2(=O)CCC2)cc2ncnc(Nc3ccc(F)cc3O[C@H](C)C(=O)NCC#N)c12` [Example 4.103], the half-maximal inhibitory concentration (IC50) worked out at 1 nM.

On to `Cc1cc(N=S2(=O)CCCC2)cc2ncnc(Nc3ccc(F)cc3O[C@H](C)C(=O)NCCF)c12` [Example 4.105], for which the half-maximal inhibitory concentration (IC50) came out at 2 nM.

Consider `C[C@@H](C#N)NC(=O)[C@@H](C)Oc1cc(F)ccc1Nc1ncnc2cc(N=S3(=O)CCC3)cc(F)c12` [Example 4.106], for which the IC50 is 2 nM.

`Cc1cc(N=S2(=O)CCC2)cc2ncnc(Nc3ccc(F)cc3O[C@H](C)C(=O)NCCF)c12` [Example 4.107]: the half-inhibitory concentration (IC50) was found to be 2 nM.

On to `Cc1cc(N=S2(=O)CCC2)cc2ncnc(Nc3ccc(F)cc3O[C@H](C)C(=O)NC(C)C(F)F)c12` (some centres unmarked) [Example 4.109], for which the IC50 was 2 nM.

On to `C[C@@H](Oc1cc(F)ccc1Nc1ncnc2cc(N=S3(=O)CCC3)cc(C(F)F)c12)C(=O)NCC(F)(F)F` [Example 4.110], for which the 50% inhibitory concentration (IC50) was found to be 2 nM.

On to `Cc1cc(N=S2(=O)CCC2)cc2ncnc(Nc3ccc(Cl)cc3O[C@H](C)C(=O)NCC(F)F)c12` [Example 4.111], for which the IC50 was determined as 1 nM.

Consider `C[C@H](C#N)NC(=O)[C@@H](C)Oc1cc(F)ccc1Nc1ncnc2cc(N=S3(=O)CCC3)cc(Cl)c12` [Example 4.112], for which the half-maximal inhibitory concentration (IC50) is 2 nM.

On to `C[C@H](C#N)NC(=O)[C@@H](C)Oc1cc(F)ccc1Nc1ncnc2cc(N=S3(=O)CCC3)cc(F)c12` [Example 4.113], for which the IC50 came to 1 nM.

As for `CC(C)NC(=O)[C@@H](C)Oc1cc(F)ccc1Nc1ncnc2cc(N=S3(=O)CCC3)cc(F)c12` [Example 4.114], the half-maximal inhibitory concentration (IC50) came to 5 nM.

For the compound `COc1cc(N=S2(=O)CCC2)cc2ncnc(Nc3ccc(F)cc3O[C@H](C)C(=O)NCC#N)c12` [Example 4.115], the concentration for half-maximal inhibition (IC50) turned out to be 2 nM.

Regarding `Cc1cc(N=S2(=O)CCC2)cc2ncnc(Nc3ccc(F)cc3O[C@H](C)C(=O)NCCC(F)F)c12` [Example 4.116], the IC50 stood at 2 nM.

For the compound `C[C@@H](Oc1cc(F)ccc1Nc1ncnc2cc(N=S3(=O)CCC3)cc(F)c12)C(=O)NCCF` [Example 4.117], the IC50 worked out at 3 nM.

Take `Cc1cc(N=S(C)(C)=O)cc2ncnc(Nc3ccc(F)cc3O[C@H](C)C(=O)NCC(F)(F)C(F)(F)F)c12` [Example 4.119]: the IC50 stood at 2 nM.

As to `C[C@@H](Oc1cc(F)ccc1Nc1ncnc2cc(N=S(C)(C)=O)cc(Cl)c12)C(=O)NC(CF)CF` [Example 4.120], the concentration for half-maximal inhibition (IC50) is 2 nM.
